Assays:
Rat cortical neurons = experiment: MPP+ toxicity (mitochondrial inhibition), cell viability; type: cell-based
pSer10-H3 = experiment: Immunostaining of pSer10-H3 (ADP-ribosylation dependent DNA repair marker); type: cell-based, rat; settings: pre-treated 50 μM 16 hours, then Aβ 50 nM 24 hours
Text: Ac-K56-H3 is a marker of genomic stability, see Driscoll, R., Hudson, A. & Jackson, S. P. Yeast Rtt109 promotes genome stability by acetylating histone H3 on lysine 56. Science 315, 649-652, doi:10.1126/science.1135862 (2007), and DNA damage, see Tjeertes, J. V., Miller, K. M. & Jackson, S. P. Screen for DNA-damage-responsive histone modifications identifies H3K9Ac and H3K56Ac in human cells. EMBO J 28, 1878-1889, doi:10.1038/emboj.2009.119 (2009), and inhibition of PARP1 causes the downregulation of RAD51, see Hegan, D. C. et al. Inhibition of poly(ADP-ribose) polymerase down-regulates BRCA1 and RAD51 in a pathway mediated by E2F4 and p130. Proc Natl Acad Sci U S A 107, 2201-2206, doi:10.1073/pnas.0904783107 (2010), and induces neurotoxicity, see Diaz-Hernandez, J. I., Moncada, S., Bolanos, J. P. & Almeida, A. Poly(ADP-ribose) polymerase-1 protects neurons against apoptosis induced by oxidative stress. Cell Death Differ 14, 1211-1221, doi:10.1038/sj.cdd.4402117 (2007) and Midorikawa, R., Takei, Y. & Hirokawa, N. KIF4 motor regulates activity-dependent neuronal survival by suppressing PARP-1 enzymatic activity. Cell 125, 371-383, doi:10.1016/j.cell.2006.02.039 (2006). […] The western blot images of the protein levels of HPF1 was quantified using ImageJ.
Coverslips were then mounted using DAPI (4′,6-diamidino-2-phenylindole)-supplemented mounting medium, Prolong Gold Antifade (Invitrogen) imaged with Leica DMI6000 epifluorescent microscope at 63×magnification.

[1] = system: rat primary cortical neuron cultures; experiment: NMDA excitotoxicity, viability by MTT assay; type: cell-based; settings: then NMDA 500 μM for 5 minutes
Description: Cells were then exposed to excitotoxic NMDA (500 μM for 5 minutes) and viability was assessed using MTT assay after 24 hours. […] Rat cortical neurons (DIV 9) were treated with NMDA (50 μM for 5 minutes) and then with cis-RSV for 24 hours. Cells were then exposed to excitotoxic NMDA (500 μM for 5 minutes) and viability was assessed using MTT assay after 24 hours. […] Cell viability was assessed after 48 hours. […] Representative images (scale bar, 20 μm) for cortical neurons following neurite degeneration (MAP2—neurite marker, magenta and DAPI—nuclear marker, blue). […] Neurons were immunoassayed with anti-MAP2 antibody and quantified for neurite degeneration. The data represents mean±SEM for n=3 experiments with significance measured using Student's paired t-test.
Primary cortical neuron cultures were obtained from E18 Sprague Dawley rats' cortices, which were dissected in Hibernate E (BrainBits) and dissociated using the Neural Tissue Dissociation kit (Miltenyi Biotec). For this, minced cortices were incubated in a pre-warmed enzyme mix at 37° C. for 15 min; tissues were then triturated and strained using a 40 μm cell strainer. After washing and centrifugation, neurons were seeded in 50 μg/ml poly-D-Lysine (Sigma Aldrich) coated tissue culture plates. NBActive-1 medium (BrainBits) supplemented with 100 U/ml of Penicillin-Streptomycin (Life Technologies), 2 mM L-Glutamine (Life Technologies), and 1 X N21 supplement (R&D Systems) was used as culture medium. Control (AM4635), TyrRS (s443), PARP1 (s130207) siRNA for transfection were obtained from Invitrogen. […]
Rat cortical neurons (DIV 10-11) were exposed to different treatments after seeding 20,000 cells/well in 96-well plates. Cell viability was then assessed at 48 hours after the initial exposure to NMDA. […] The percentage of MTT reduced as measured by the difference between the absorbances at 570 nm read in a spectrophotometer (Spectramax 190R Molecular Devices, UK). The percentage of reduction of MTT was calculated comparing the difference of the absorbance at 570 of each sample. […]

8-oxo-2′-dG = experiment: Quantification of 8-oxo-2′-dG (oxidation level of neuronal DNA); type: cell-based, rat; settings: 50 μM, 16 hours
Text: Although Aβ exacerbates neuronal DNA damage through an unknown mechanism, see Suberbielle, E. et al. Physiologic brain activity causes DNA double-strand breaks in neurons, with exacerbation by amyloid-beta. […] Elife 7, doi:ARTN e34334 10.7554/eLife.34334 (2018), and (see FIG. 7 at (b)). […] Mol Cell 65, 932-940 e936, doi:10.1016/j.molcel.2017.01.003 (2017), in a time-dependent manner (see FIG. 7 at (c)). […] Representative immunoblots and quantification for the auto-PARylation level of PARP1 after the siRNA knockdown of TyrRS.

GSK3β = experiment: Immunoblot for inhibitory GSK3β phosphorylation; type: cell-based, rat; settings: 16 hours
H3 = experiment: Immunoblot for histone H3 acetylation (Ac-K9-H3, Ac-K56-H3); type: cell-based, rat; settings: 15 minutes
γ-H2AX foci = experiment: Immunostaining of DNA damage marker pSer139-H2AX (γ-H2AX) foci; type: cell-based, rat; settings: 24 hours; for Aβ-mediated accumulation of γ-H2AX foci: 50 μM in combination with Aβ 50 nM; for γ-H2AX foci: alone, 50 μM
RAD51 = experiment: Immunoblot for RAD51 levels; type: cell-based, rat; settings: 4 hours

Compound | neurotoxicity by itself (Rat cortical neurons; high dose 50 μM, no toxin) | pSer10-H3 levels (pSer10-H3) | neuronal survival under NMDA excitotoxicity ([1]; higher dose (≥25 μM), 24 hours) | neuronal survival under NMDA excitotoxicity ([1]; low dose (≤10 μM), 24 hours) | levels of 8-oxo-dG (8-oxo-2′-dG) | GSK3β activity via inhibitory phosphorylation (pSer9) (GSK3β) | acetylation level of H3 lysine 9 (Ac-K9-H3) (H3) | acetylation level of H3 lysine 56 (Ac-K56-H3) (H3) | Aβ-mediated accumulation of γ-H2AX foci (γ-H2AX foci) | γ-H2AX foci (γ-H2AX foci) | RAD51 levels (RAD51; low dose 5 μM) | RAD51 levels (RAD51; ≥10 μM) | protection against MPP+ toxicity (cell viability) (Rat cortical neurons; 10 μM MPP, pre-treatment 50 μM for 16 hours, viability after 48 hours) | neuronal survival under NMDA excitotoxicity ([1]; cis-RSV for 24 hours) | RAD51 levels (RAD51; cis-RSV 5-50 μM)
Oc1ccc(/C=C/c2cc(O)cc(O)c2)cc1 [trans-RSV, trans-resveratrol] | neurotoxic | upregulation | exacerbated the N-Methyl-D-aspartate (NMDA)-mediated excitotoxicity | evoked neuroprotective effects | upregulated the levels of 8-oxo-2′-deoxyguanosine (8-oxo-dG) | activated GSK3β by downregulating the levels of pSer9 | downregulated the lysine 9 and 56 acetylation levels of H3 | downregulated the lysine 9 and 56 acetylation levels of H3 | exacerbated the accumulation of γ-H2AX foci | caused the accumulation of γ-H2AX foci | upregulated it | downregulated RAD51 in a dose-dependent manner | – | – | –
Oc1ccc(/C=C\c2cc(O)cc(O)c2)cc1 [cis-RSV, cis-resveratrol] | – | reduced pSer10-H3 levels | – | – | downregulated both the protein levels of OGG1 and the levels of 8-oxo-dG | inhibited GSK3β through the upregulation of the inhibitory phosphorylation (pSer9) | upregulated the acetylation levels of H3 lysine 9 (Ac-K9-H3) | – | rescued A β-mediated accumulation of γ-H2AX foci | downregulated the accumulation of γ-H2AX foci | – | – | protects against MPP toxicity | protected against excitotoxicity in a dose-dependent manner | upregulated it

Reference: US20240342111A1, “ISOMER-SPECIFIC NEUROPROTECTIVE EFFECT OF NATURAL RESERVATROL” (priority 2021, published 2024)
